Data published in US11691962B2 (eXIthera Pharmaceuticals, Inc., priority 2018, dated 2023).

Assays:
[1] = Caco-2 cell permeability assay; type: in vitro ADME, human; conditions: human, 37° C.; for Papp A→B at 60 min, 10 μM: Caco-2, apical to basolateral; for Papp B→A at 40 min, 10 μM: Caco-2, basolateral to apical
Experimental: The following procedure was used to determine the ability of a test compound to cross Caco-2 cells (human intestinal epithelial cells derived from a colorectal adenocarcinoma). The cells were seeded at 1×10^5 cells/cm^2 in 96-well Multiscreen™ plates (Millipore). Permeability assays were performed with the cells at days 21-25 post-seeding. Cells are typically used for 15 consecutive passages in culture.
This assay can be performed in either the apical to basolateral (A-B) or basolateral to apical (B-A) direction. The test compound was prepared at 10 μM in HBSS-MES (pH 6.5) or HBSS-HEPES (pH 7.4) with a final DMSO concentration of 1%. The working solution was then centrifuged and the supernatant added to the donor side. The assay plate was incubated at 37° C. with gentle shaking for 60 min or 40 min for the A-B or B-A assay, respectively. Samples were aliquoted from the donor side at time zero and the end point, and from the receiver side at the end point.
Reference compounds, propranolol (highly permeable), labetalol (moderately permeable), ranitidine (poorly permeable), and colchicine (P-glycoprotein substrate) were included in each assay.
Samples are analyzed by HPLC-MS/MS using selected reaction monitoring. The HPLC system consists of a binary LC pump with autosampler, a C-18 column, and a gradient.
The apparent permeability coefficient (Papp) of the test compound (Equation 2) and its recovery (Equation 3) are calculated as follows:
[formula] wherein A is the surface area of the cell monolayer (0.11 cm^2), C is concentration of the test compound expressed as peak area, D denotes donor, and R is receiver. “0”, “mid,” and “end” denote time at zero, mid-point, and end of the incubation, respectively. Δt is the incubation time. V is the volume of the donor or receiver.
This is most likely due to non-specific binding or degradation.

Thrombin = Thrombin (Homo sapiens (Human), UniProt P00734); test: Dose response assay for protease inhibitors: thrombin; type: biochemical; conditions: selectivity, thrombin over Factor XIa
Procedure, shortened: (§1)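 Glp-Pro-Arg-AMC substrate (thrombin, trypsin) or Pro-Phe-Arg-AMC/Boc-Leu-Gly-Arg-AMC (Factor Xa), diluted to 100 μM, in 20 mM Hepes pH 7.4, 150 mM NaCl, 0.02% Tween 20; enzyme diluted to 0.5 nM before addition. Two-fold serial compound dilutions; kinetic reads at 30° C. Data yield IC50 and Kon.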

Trypsin = test: Dose response assay for protease inhibitors: trypsin; type: biochemical; conditions: selectivity, trypsin over Factor XIa
Procedure, shortened: as §1

Factor Xa = Factor Xa (Homo sapiens (Human), UniProt P00742); test: Dose response assay for protease inhibitors: Factor Xa; type: biochemical; conditions: selectivity, Factor Xa over Factor XIa
Procedure, shortened: as §1

Factor XIa = Factor XIa (Homo sapiens (Human), UniProt P03951); test: Factor XIa enzyme inhibition assay (dose response, fluorogenic AMC substrate); type: biochemical; conditions: read-out: hFXIa IC50
Procedure, shortened: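 Fluorogenic progress curves (30 min, 1-min reads, 30° C) were recorded for 0.25 nM FXIa cleaving 50 μM Glp-Pro-Arg-AMC in Hepes pH 7.4 buffer with NaCl and Tween 20. Compounds were serially two-fold diluted, and IC50 was fitted with a Hill equation.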

Factor Xa, sequence (P00742 235-488): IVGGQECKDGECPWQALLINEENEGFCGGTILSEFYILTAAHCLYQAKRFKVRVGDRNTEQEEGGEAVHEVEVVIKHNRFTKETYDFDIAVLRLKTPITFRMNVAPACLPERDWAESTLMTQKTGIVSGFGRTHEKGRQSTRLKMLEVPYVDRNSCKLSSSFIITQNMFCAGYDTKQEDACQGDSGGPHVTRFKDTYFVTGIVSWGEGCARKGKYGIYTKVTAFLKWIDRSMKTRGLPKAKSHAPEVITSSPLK
Factor Xa, sequence (P00742 41-179 partner): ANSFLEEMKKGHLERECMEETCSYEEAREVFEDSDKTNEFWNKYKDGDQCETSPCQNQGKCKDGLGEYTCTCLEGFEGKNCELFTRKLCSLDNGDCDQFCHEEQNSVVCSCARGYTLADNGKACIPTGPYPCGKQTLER
Factor XIa, sequence (P03951 388-625): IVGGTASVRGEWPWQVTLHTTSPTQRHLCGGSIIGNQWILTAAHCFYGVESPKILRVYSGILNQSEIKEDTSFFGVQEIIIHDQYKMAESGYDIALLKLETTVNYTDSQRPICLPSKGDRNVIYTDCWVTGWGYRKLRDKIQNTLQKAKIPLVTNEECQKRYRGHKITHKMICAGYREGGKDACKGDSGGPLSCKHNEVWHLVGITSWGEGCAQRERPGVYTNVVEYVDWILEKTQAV
Factor XIa, sequence (P03951 19-387 partner): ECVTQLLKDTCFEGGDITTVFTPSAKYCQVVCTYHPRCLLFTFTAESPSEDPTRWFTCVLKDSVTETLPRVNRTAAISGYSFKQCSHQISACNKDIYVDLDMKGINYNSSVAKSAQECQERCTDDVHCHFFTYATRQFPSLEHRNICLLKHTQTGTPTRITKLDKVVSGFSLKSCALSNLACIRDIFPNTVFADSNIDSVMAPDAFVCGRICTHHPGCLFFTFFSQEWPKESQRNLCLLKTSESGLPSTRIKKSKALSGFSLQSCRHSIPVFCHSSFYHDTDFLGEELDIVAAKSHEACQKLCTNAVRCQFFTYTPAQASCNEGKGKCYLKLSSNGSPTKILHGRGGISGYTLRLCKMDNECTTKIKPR

Compound	Papp A→B at 60 min, 10 μM [1] [×10⁻⁶ cm/s]	Papp B→A at 40 min, 10 μM [1] [×10⁻⁶ cm/s]	Ratio: Thrombin/FXIa (Thrombin)	Ratio: FXa/FXIa (Factor Xa)	IC50 (Factor XIa) [nM]	Ratio: Trypsin/FXIa (Trypsin)
CC[C@@H](NC(=O)N1C(=O)[C@H](Cc2cc(C)nc(N)c2)[C@H]1C(=O)N(C)c1cnn(C)c1)c1cc(F)ccc1F [Compound 1-182, (2S,3R)-3-((2-amino-6-methylpyridin-4-yl)methyl)-N2-(1-methyl-1H-pyrazol-4-yl)-N1-((R)-1-(2,5-difluorophenyl)propyl)-N2-methyl-4-oxoazetidine-1,2-dicarboxamide]	–	–	H (“H” indicates 101-1000)	I (“I” indicates > 500)	< 10	G (“G” indicates 1-100)
CC[C@@H](NC(=O)N1C(=O)[C@H](Cc2cc(C)nc(N)c2)[C@H]1C(=O)N(C)c1cnn(C)c1)c1cc(C)cc(F)c1 [Compound 1-184, (2S,3R)-3-((2-amino-6-methylpyridin-4-yl)methyl)-N2-(1-methyl-1H-pyrazol-4-yl)-N1-((R)-1-(3-fluoro-5-methylphenyl)propyl)-N2-methyl-4-oxoazetidine-1,2-dicarboxamide]	–	–	H (“H” indicates 101-1000)	I (“I” indicates > 500)	< 10	G (“G” indicates 1-100)
CC[C@@H](NC(=O)N1C(=O)[C@H](Cc2cc(C)nc(N)c2)[C@H]1C(=O)N(C)c1cnn(C)c1)c1cc(C)cc(C)c1 [Compound 1-185, (2S,3R)-3-((2-amino-6-methylpyridin-4-yl)methyl)-N2-(1-methyl-1H-pyrazol-4-yl)-N1-((R)-1-(3,5-dimethylphenyl)propyl)-N2-methyl-4-oxoazetidine-1,2-dicarboxamide]	–	–	H (“H” indicates 101-1000)	I (“I” indicates > 500)	< 10	G (“G” indicates 1-100)
CC[C@@H](NC(=O)N1C(=O)[C@H](Cc2ccnc(N)c2)[C@H]1C(=O)N(C)c1ccn(C)n1)c1cc(F)c(F)c(F)c1 [Compound 1-197, (2S,3R)-3-((2-aminopyridin-4-yl)methyl)-N2-(1-methyl-1H-pyrazol-3-yl)-N1-((R)-1-(3,4,5-trifluorophenyl)propyl)-N2-methyl-4-oxoazetidine-1,2-dicarboxamide]	–	–	I (“I” indicates > 500)	I (“I” indicates > 500)	< 10	H (“H” indicates 101-1000)
CC[C@@H](NC(=O)N1C(=O)[C@H](Cc2ccnc(N)c2)[C@H]1C(=O)N(C)c1ccn(C)n1)c1ccc(F)c(C)c1F [Compound 1-198, (2S,3R)-3-((2-aminopyridin-4-yl)methyl)-N2-(1-methyl-1H-pyrazol-3-yl)-N1-((R)-1-(2,4-difluoro-3-methylphenyl)propyl)-N2-methyl-4-oxoazetidine-1,2-dicarboxamide]	–	–	H (“H” indicates 101-1000)	I (“I” indicates > 500)	< 10	H (“H” indicates 101-1000)
(2S,3R)-3-((2-aminopyridin-4-yl)methyl)-N2-(1-methyl-1H-imidazol-4-yl)-N1-((R)-1-cyclohexyl-2,2,2-trifluoroethyl)-N2-methyl-4-oxoazetidine-1,2-dicarboxamide [Compound 1-70]	–	–	G (“G” indicates 1-100)	I (“I” indicates > 500)	< 10	G (“G” indicates 1-100)
(2S,3R)-3-((2-aminopyridin-4-yl)methyl)-N2-(1-methyl-1H-pyrazol-3-yl)-N1-((S)-1-(3-chlorophenyl)ethyl)-N2-methyl-4-oxoazetidine-1,2-dicarboxamide [Compound 1-33]	–	–	H (“H” indicates 101-1000)	H (“H” indicates 101-1000)	< 10	G (“G” indicates 1-100)

Second part, led by results:

Papp A→B at 60 min, 10 μM [1] [×10⁻⁶ cm/s]	Papp B→A at 40 min, 10 μM [1] [×10⁻⁶ cm/s]	Ratio: Thrombin/FXIa (Thrombin)	Ratio: FXa/FXIa (Factor Xa)	IC50 (Factor XIa) [nM]	Compound	Ratio: Trypsin/FXIa (Trypsin)
11 to 30	11 to 30	H (“H” indicates 101-1000)	H (“H” indicates 101-1000)	< 10	CC[C@@H](NC(=O)N1C(=O)[C@H](Cc2ccnc(N)c2)[C@H]1C(=O)N(C)c1ccsc1)c1ccccc1 [Compound 1-9, (2S,3R)-3-((2-aminopyridin-4-yl)methyl)-N2-(thiophen-3-yl)-N1-((R)-1-phenylpropyl)-N2-methyl-4-oxoazetidine-1,2-dicarboxamide]	G (“G” indicates 1-100)
< 10	11 to 30	H (“H” indicates 101-1000)	H (“H” indicates 101-1000)	< 10	CC[C@@H](NC(=O)N1C(=O)[C@H](Cc2ccnc(N)c2)[C@H]1C(=O)N(C)c1cnn(C)c1)c1cccc(Cl)c1 [Compound 1-11, (2S,3R)-3-((2-aminopyridin-4-yl)methyl)-N2-(1-methyl-1H-pyrazol-4-yl)-N1-((R)-1-(3-chlorophenyl)propyl)-N2-methyl-4-oxoazetidine-1,2-dicarboxamide]	G (“G” indicates 1-100)
–	–	H (“H” indicates 101-1000)	I (“I” indicates > 500)	< 10	CC[C@@H](NC(=O)N1C(=O)[C@H](Cc2ccnc(N)c2)[C@H]1C(=O)N(C)c1nccn1C)c1cc(F)c(F)c(F)c1 [Compound 1-193, (2S,3R)-3-((2-aminopyridin-4-yl)methyl)-N2-(1-methyl-1H-imidazol-2-yl)-N1-((R)-1-(3,4,5-trifluorophenyl)propyl)-N2-methyl-4-oxoazetidine-1,2-dicarboxamide]	G (“G” indicates 1-100)
–	–	H (“H” indicates 101-1000)	I (“I” indicates > 500)	< 10	CC[C@@H](NC(=O)N1C(=O)[C@H](Cc2ccnc(N)c2)[C@H]1C(=O)N(C)c1nccn1C)c1ccc(F)c(C)c1F [Compound 1-194, (2S,3R)-3-((2-aminopyridin-4-yl)methyl)-N2-(1-methyl-1H-imidazol-2-yl)-N1-((R)-1-(2,4-difluoro-3-methylphenyl)propyl)-N2-methyl-4-oxoazetidine-1,2-dicarboxamide]	H (“H” indicates 101-1000)
–	–	H (“H” indicates 101-1000)	I (“I” indicates > 500)	< 10	CC[C@@H](NC(=O)N1C(=O)[C@H](Cc2ccnc(N)c2)[C@H]1C(=O)N(C)c1cnn(C)c1)c1cc(F)c(F)c(F)c1 [Compound 1-199, (2S,3R)-3-((2-aminopyridin-4-yl)methyl)-N2-(1-methyl-1H-pyrazol-4-yl)-N1-((R)-1-(3,4,5-trifluorophenyl)propyl)-N2-methyl-4-oxoazetidine-1,2-dicarboxamide]	H (“H” indicates 101-1000)
–	–	I (“I” indicates > 500)	I (“I” indicates > 500)	< 10	CC[C@@H](NC(=O)N1C(=O)[C@H](Cc2ccnc(N)c2)[C@H]1C(=O)N(C)c1ccnn1C)c1ccc(F)c(C)c1F [Compound 1-200]	H (“H” indicates 101-1000)
